Reference: patent publication US11401271B2, “Fused heterocyclic compound, pyrazole-ring-containing fused heterocyclic compound, agricultural composition containing thereof, and method of using the composition” (SOUTH CHINA AGRICULTURAL UNIVERSITY, priority 2017, dated 2022)
Where two headings read alike, the source gives them in different places.

Legend:
Test in all cases: whole plant or invertebrate
Assay type in all cases: in vivo
Aphis craccivora = conditions: for Aphis craccivora Mortality (%) / Aphis craccivora Mortality (%) 500 ppm: 500 ppm, wingless adults; for Aphis craccivora Mortality (%): immersion 5 seconds, counted after 24 hours; for mortality at 500 ppm: Aphis craccivora, 24 h, read-out: Aphis craccivora Mortality (%) 500 ppm; for Aphis craccivora Mortality (%) 500 ppm: impregnation method, 24 hours
Outline: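 Wingless adults feeding on bean sprouts were dipped with the sprouts for 5 s in 500 ppm compound in aqueous 0.05% Tween-80, air-dried, then held at 23° C. Dead aphids counted after 24 h, triplicate, with 0.05% Tween-80 as control. Mortality (%) = (control live − treated live)/control live × 100.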

Solenopsis invicta = conditions: water test tube poison-feeding; for Solenopsis invicta Mortality (%) 24 h / Solenopsis invicta Mortality (%) 72 h / Solenopsis invicta Mortality (%) 100 ppm 24 h / Solenopsis invicta Mortality (%) 100 ppm 72 h: 100 ppm; for mortality at 100 ppm: Solenopsis invicta
Outline: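 Fire ants fed compound by water test-tube poison-feeding at 100 ppm in aqueous 0.05% Tween-80/5% honey (from 10 g/L DMSO stock), kept at 25 °C. Live and dead ants counted at 24 and 72 h; mortality (%) calculated relative to live ants in the untreated control.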

Spodoptera exigua = conditions: for Spodoptera exigua Mortality (%) / Spodoptera exigua Mortality (%) 500 ppm: 500 ppm, 2nd-instar larvae, leaf immersion feeding; for mortality at 500 ppm: Spodoptera exigua, 24 h, read-out: Spodoptera exigua Mortality (%) 500 ppm; for Spodoptera exigua Mortality (%) 500 ppm: 24 hours
Outline: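 Cabbage leaf discs dipped 5 s in 500 ppm compound (0.05% Tween-80 aqueous), air-dried, fed to about 35 2nd-instar larvae at 28° C, three replicates. Deaths counted at 24 h; mortality corrected against Tween-80 control.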

Plutella xylostella = conditions: for Plutella xylostella Mortality (%) / Plutella xylostella Mortality (%) 500 ppm: 500 ppm, 2nd-instar larvae, leaf immersion feeding; for mortality at 500 ppm: Plutella xylostella, read-out: Plutella xylostella Mortality (%) 500 ppm
Outline: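 Cabbage leaf discs dipped 5 s in compound at 500 ppm (0.05% Tween-80 aqueous), air-dried, fed to about 35 2nd-instar larvae at 28° C., triplicate. Dead larvae counted after 24 h; mortality (%) corrected against Tween-80 control.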

[1] = 24 h, read-out: Solenopsis invicta Mortality (%) 100 ppm 24 h, 100 ppm, 24 h
[2] = 72 h, read-out: Solenopsis invicta Mortality (%) 100 ppm 72 h, 100 ppm, 72 h

| SMILES | Aphis craccivora Mortality (%) (Aphis craccivora) | Solenopsis invicta Mortality (%) 24 h (Solenopsis invicta; 24 h) [%] | Solenopsis invicta Mortality (%) 72 h (Solenopsis invicta; 72 h) [%] | Spodoptera exigua Mortality (%) (Spodoptera exigua) | Plutella xylostella Mortality (%) (Plutella xylostella) | mortality at 500 ppm (Aphis craccivora) [%] | mortality at 100 ppm (Solenopsis invicta; [1]) [%] | mortality at 100 ppm (Solenopsis invicta; [2]) [%] | mortality at 500 ppm (Spodoptera exigua) [%] | mortality at 500 ppm (Plutella xylostella) [%] | other results |
| --- | --- | --- | --- | --- | --- | --- | --- | --- | --- | --- | --- |
| N#Cc1nn2c(c1OC(F)(F)F)NC(C(=O)C(F)(F)F)c1cc(C(F)(F)F)cc(Cl)c1-2 (stereo not drawn) [d-127] | 100 | 20 | 97 | 100 | 96 | – | – | – | – | – | – |
| CNC(=O)C1(CC#N)Nc2c([S+]([O-])C(F)(F)F)c(C#N)nn2-c2c(Cl)cc(C(F)(F)F)cc21 (stereo not drawn) [Compound C33] | – | – | – | – | – | 100 | 36 | 100 | 100 | 100 | – |
| CC[S+]([O-])c1c(C(F)(F)F)nn2c1NC(C(F)(F)F)(C(F)(F)F)c1ccc(N)cc1-2 (stereo not drawn) [Compound A14] | – | – | – | – | – | 100 | 26 | 93 | 90 | 100 | – |
| COC(=O)CC1Nc2c([S+]([O-])C(F)(F)F)c(C(F)(F)F)nn2-c2c(Cl)cc(C(F)(F)F)cc21 (stereo not drawn) [d-98] | 100 | 20 | 99 | 100 | 100 | – | – | – | – | – | – |
| COC(=O)CC1Nc2c([S+]([O-])C(F)(F)F)c(C#N)nn2-c2ncc(C(F)(F)F)cc21 (stereo not drawn) [a-65] | – | – | – | – | – | – | – | – | – | – | Aphis craccivora Mortality (%) 500 ppm (Aphis craccivora): 100%; Solenopsis invicta Mortality (%) 100 ppm 24 h (Solenopsis invicta; 24 h): 26%; Solenopsis invicta Mortality (%) 100 ppm 72 h (Solenopsis invicta; 72 h): 100%; Spodoptera exigua Mortality (%) 500 ppm (Spodoptera exigua): 100%; Plutella xylostella Mortality (%) 500 ppm (Plutella xylostella): 100% |
| COC(=O)C1(CC(=O)OCC(F)F)Nc2c([S+]([O-])C(F)(F)F)c(C#N)nn2-c2c(C(F)(F)F)ccc(Cl)c21 (stereo not drawn) [e-4] | 100 | 32 | 100 | 100 | 100 | – | – | – | – | – | – |
| COC(=O)CC1(C(=O)OC)Nc2c([S+](C)[O-])c(C#N)nn2-c2c(Cl)cc(C(F)(F)F)cc21 (stereo not drawn) [d-13] | 99 | 26 | 89 | 81 | 82 | – | – | – | – | – | – |
| CC(C)C1Nc2c(OC(F)(F)F)c(C#N)nn2-c2c(Cl)cc(C(F)(F)F)cc21 (stereo not drawn) [d-141] | 100 | 11 | 91 | 95 | 90 | – | – | – | – | – | – |
| CC(=O)Nc1cc2n(n1)-c1cnccc1C(F)(CC(F)(F)F)N2 (stereo not drawn) [Compound A39] | – | – | – | – | – | 100 | 24 | 100 | 100 | 100 | – |
| N#CCC1(CBr)Nc2c([S+]([O-])C(F)(F)F)c(C#N)nn2-c2c(Cl)cc(C(F)(F)F)cc21 (stereo not drawn) [Compound C28] | – | – | – | – | – | 100 | 30 | 98 | 100 | 100 | – |
| COC(=O)CC1(C(=O)C(F)(F)F)Nc2c([S+]([O-])C(F)(F)F)c(C#N)nn2-c2cncc(Cl)c21 (stereo not drawn) [b-28] | 100 | 16 | 100 | 99 | 100 | – | – | – | – | – | – |
| O=C(CC1Nc2c([S+]([O-])C(F)(F)F)c(C(F)(F)F)nn2-c2c(Cl)cc(C(F)(F)F)cc21)C(F)(F)F (stereo not drawn) [d-103] | 100 | 26 | 93 | 98 | 100 | – | – | – | – | – | – |
| CSc1nn2c(c1C#N)NC(F)(C(F)(F)F)c1ccccc1-2 (stereo not drawn) [Compound A25] | – | – | – | – | – | 100 | 38 | 100 | 100 | 100 | – |
| N#Cc1nn2c(c1[S+]([O-])C(F)(F)F)NC(C#N)(CC(F)(F)F)c1cc(C(F)(F)F)cc(Cl)c1-2 (stereo not drawn) [d-65] | 100 | 24 | 90 | 100 | 100 | – | – | – | – | – | – |
| COC(=O)C1(CC(=O)OCC(F)(F)F)Nc2c([S+]([O-])C(F)(F)F)c(C#N)nn2-c2c(C(F)(F)F)ccc(Cl)c21 (stereo not drawn) [e-3] | 100 | 20 | 98 | 95 | 100 | – | – | – | – | – | – |
| CC(=O)c1nn2c(c1[S+](C)[O-])NC(CC(=O)O)(C(=O)O)c1cc(C(F)(F)F)cc(Cl)c1-2 (stereo not drawn) [Compound C47] | – | – | – | – | – | 80 | 27 | 87 | 86 | 77 | – |
| COC(=O)C1(CC(=O)OCC(F)F)Nc2c([S+]([O-])C(F)(F)F)c(C#N)nn2-c2cc(C(F)(F)F)cc(Cl)c21 (stereo not drawn) [c-20] | 100 | 14 | 100 | 100 | 100 | – | – | – | – | – | – |
| N#CCC1(Cl)Nc2c([S+]([O-])C(F)(F)F)c(C#N)nn2-c2cncc(Cl)c21 (stereo not drawn) [b-47] | 100 | 18 | 90 | 85 | 95 | – | – | – | – | – | – |
| C=CC1Nc2c([S+]([O-])C(F)(F)F)c(C#N)nn2-c2c(Cl)cc(C(F)(F)F)cc21 (stereo not drawn) [Compound C16] | – | – | – | – | – | 99 | 23 | 89 | 95 | 100 | – |
| COC(=O)C1(CC#N)Nc2c([S+]([O-])C(F)(F)F)c(C#N)nn2-c2ncc(C(F)(F)F)cc21 (stereo not drawn) [a-2] | – | – | – | – | – | – | – | – | – | – | Aphis craccivora Mortality (%) 500 ppm (Aphis craccivora): 100%; Solenopsis invicta Mortality (%) 100 ppm 24 h (Solenopsis invicta; 24 h): 19%; Solenopsis invicta Mortality (%) 100 ppm 72 h (Solenopsis invicta; 72 h): 98%; Spodoptera exigua Mortality (%) 500 ppm (Spodoptera exigua): 97%; Plutella xylostella Mortality (%) 500 ppm (Plutella xylostella): 97% |
| C=CC1(CC#N)Nc2c([S+](C)[O-])c(C(C)=O)nn2-c2c(Cl)cc(C(F)(F)F)cc21 (stereo not drawn) [Compound C23] | – | – | – | – | – | 95 | 18 | 80 | 88 | 86 | – |
| COC(=O)CC1(C(=O)OC)Nc2c([S+]([O-])C(F)(F)F)c(C#N)nn2-c2cncc(Cl)c21 (stereo not drawn) [b-1] | 100 | 20 | 97 | 100 | 100 | – | – | – | – | – | – |
| CC(=O)C1(C(=O)C(F)(F)F)Nc2c([S+]([O-])C(F)(F)F)c(C#N)nn2-c2cc(C(F)(F)F)cc(Cl)c21 (stereo not drawn) [c-39] | 100 | 24 | 90 | 89 | 95 | – | – | – | – | – | – |
| CC(=O)C1(CC(F)(F)F)Nc2c([S+]([O-])C(F)(F)F)c(C#N)nn2-c2ncc(C(F)(F)F)cc21 (stereo not drawn) [a-36] | – | – | – | – | – | – | – | – | – | – | Aphis craccivora Mortality (%) 500 ppm (Aphis craccivora): 100%; Solenopsis invicta Mortality (%) 100 ppm 24 h (Solenopsis invicta; 24 h): 14%; Solenopsis invicta Mortality (%) 100 ppm 72 h (Solenopsis invicta; 72 h): 91%; Spodoptera exigua Mortality (%) 500 ppm (Spodoptera exigua): 96%; Plutella xylostella Mortality (%) 500 ppm (Plutella xylostella): 100% |
